# Test results as given in publication PMC12535076, “Neurotherapeutic effects of Vutiglabridin as a Paraoxonase-2 modulator in preclinical models of Parkinson’s disease” (Molecular Neurodegeneration, 2025).
# What was measured:
# [1] = system: shPON2-SH-SY5Y cells; test: Mitochondrial activity in PON2 knockdown (shPON2) and shSCR SH-SY5Y cells treated with MPP+; type: cell-based, human
# Method: Human SH-SY5Y neuroblastoma cells (ATCC® (CRL-2266™; Manassas, VA, USA) were first cultured in Dulbecco’s Modified Eagle Medium (DMEM)/F12 supplemented with 10% fetal bovine serum (FBS), 100 U/mL penicillin, and 100 µg/mL streptomycin (complete media, CM) at 37 °C with 5% CO2. Cells (5 × 10^4 cells/well) then were cultured in 96-well plates for 24 h followed by incubation in serum-deficient media (SDM, culture media containing 0.5% FBS) for 16 h. Quiescent cells in SDM were incubated with 1 mM MPP^+ or dimethyl sulfoxide (DMSO) vehicle for 24 h, then treated with Vuti at the designated doses for 24 h. The treated cells were harvested according to the purpose and analyzed.
# Lentiviral PON2 shRNA (h) (sc-62838) was purchased from Santa Cruz Co. (Santa Cruz, CA, USA). shRNA lentiviral particle transduction was performed according to the manufacturer’s protocol. Total RNA was isolated with a Trizol reagent (Invitrogen, Carlsbad, CA, USA). […] PON2 knockdown was verified by quantitative PCR, and the primers and methods used are described in the supplementary material.
# A systemic cell-based mitochondrial function analysis system was established using SH-SY5Y cells in 96-well plates based on fluorescence detection methods as described previously. The assay system covers quantitative assays for methyl thiazyl tetrazolium-mitochondrial dehydrogenase activity (MTT), TMRE-based mitochondrial membrane potential (TMRE), ATP contents, and ROS of cells. […] Fluorescence intensities at 550 nm/580 nm for TMRE, at 510 nm/580 nm MitoSOX, or at 494 nm/522 nm for DCF-DA were normalized by Hoechst intensity at 355 nm/480 nm (Spectramax Gemini EM, Molecular Devices, Sunnyvale, CA, USA).
# Endogenous OCR was measured in adherent SH-SY5Y cells using a Seahorse XF-24 Analyzer (Seahorse Bioscience, Billerica, MA, USA) following the manufacturer’s protocol with minor modifications. […] The OCR was calculated from 3-min measurement cycles and normalized to cell number.
# [2] = biological target: T1, MAO-B (Homo sapiens, UniProt P27338); test: HRP/Amplex red based MAO-B enzyme activity assay; type: biochemical; conditions: read-out: IC50, MAO-B assay, HRP/AR method
# T1 sequence (P27338 1-520): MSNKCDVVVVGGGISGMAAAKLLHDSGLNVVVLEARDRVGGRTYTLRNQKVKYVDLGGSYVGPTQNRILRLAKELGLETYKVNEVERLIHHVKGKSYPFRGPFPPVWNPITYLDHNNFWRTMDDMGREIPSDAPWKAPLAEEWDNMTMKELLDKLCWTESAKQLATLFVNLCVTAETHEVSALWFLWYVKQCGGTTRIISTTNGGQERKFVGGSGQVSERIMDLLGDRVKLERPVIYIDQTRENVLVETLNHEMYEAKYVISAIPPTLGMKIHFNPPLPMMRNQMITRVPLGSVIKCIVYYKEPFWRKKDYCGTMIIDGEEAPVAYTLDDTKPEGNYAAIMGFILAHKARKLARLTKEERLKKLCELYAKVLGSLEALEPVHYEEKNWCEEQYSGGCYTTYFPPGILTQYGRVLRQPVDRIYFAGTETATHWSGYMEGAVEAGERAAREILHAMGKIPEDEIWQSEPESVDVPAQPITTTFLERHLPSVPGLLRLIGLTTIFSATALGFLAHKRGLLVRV
# Method: MAO-A or MAO-B enzyme solutions were prepared by diluting 10 µL of a 2.5 mg/mL MAO-A or MAO-B stock into 10 mL of 50 mM sodium phosphate buffer (pH 7.4). A substrate assay mixture was then prepared by combining benzylamine (for MAO-B) or tyramine (for MAO-A) from a 100 mM stock (200 µL in 10 mL phosphate buffer, final concentration 1 mM) with 100 µL of a 20 mM AR reagent stock (final concentration 0.1 mM) and 100 µL of a 200 U/mL HRP stock (final concentration 1 U/mL) in 10 mL phosphate buffer. […] Next, 50 µL of the substrate assay mixture was added, and the reaction was carried out at 37 °C for 60 min. The production of resorufin was quantified by fluorescence measurement (excitation at 540 nm and emission at 580 nm).
smiles,measurement,setting,value
"CCOc1ccc(C2COc3c(ccc4c3CCC(C)(C)O4)C2)c(O)c1 (stereo not shown) [Vuti, Vutiglabridin]",MPP+-induced mitochondrial damages in shSCR cells,"[1]; control scrambled shRNA cells, 1 mM MPP+ then 1 nM Vuti",significantly restored
same,"OCR (basal respiration, ATP turnover rate, maximum respiratory capacity) in shPON2 cells","[1]; shPON2 cells, 1 mM MPP+ 20 h then 1 nM Vuti 24 h",failed to restore
same,"effects on mitochondria function (MTT, ATP content, TMRE, DCF-DA-ROS, MitoSOX-ROS) in shPON2 cells","[1]; shPON2 infected cells, 1 mM MPP+ 20 h then 1 nM Vuti 24 h",considerably reduced or almost completely abolished
same,IC50,[2],425 µM
